B1: IFN gamma: cytokine (protein, UniProt P01579 24-161, looked up)
Interferon gamma: QDPYVKEAENLKKYFNAGHSDVADNGTLFLGILKNWKEESDRKIMQSQIVSFYFKLFKNFKDDQSIQKSVETIKEDMNVKFFNSNKKKRDDFEKLTNYSVTDLNVQRKAIHELIQVMAELSPAAKTGKRKRSQMLFRG
B2: IL-4: cytokine (protein, UniProt P05112 25-153, looked up)
Interleukin-4: HKCDITLQEIIKTLNSLTEQKTLCTELTVTDIFAASKNTTEKETFCRAATVLRQFYSHHEKDTRCLGATAQQFHRHKQLIRFLKRLDRNLWGLAGLNSCPVKEANQSTLENFLERLKTIMREKYSKCSS
B3: IL-10: cytokine (protein, UniProt P22301 19-178, looked up)
Interleukin-10: SPGQGTQSENSCTHFPGNLPNMLRDLRDAFSRVKTFFQMKDQLDNLLLKESLLEDFKGYLGCQALSEMIQFYLEEVMPQAENQDPDIKAHVNSLGENLKTLRLRLRRCHRFLPCENKSKAVEQVKNAFNKLQEKGIYKAMSEFDIFINYIEAYMTMKIRN

Assays:
[1] = test system: Pim1 and Pim 2; assay: Western blot of Pim1 and Pim 2 expression in primary B cells; assay type: cell-based, mouse; details: 2 days, 100 ng/ml rhuNeutrokine-alpha
Protocol: Antibodies and Western Blotting: Mouse anti-Pim 2 (1D12), Pim 1 (19F7), goat anti-actin (1-19), anti-mouse Ig, anti-rabbit Ig and anti-goat Ig coupled to HRP were obtained from Santa Cruz Biotechnology, Santa Cruz Calif. […] Rabbit anti-mouse Mcl-1 was purchased from Rockland, Wilmington Mass. Whole cell lysates were prepared by washing B cells in ice cold PBS and lysing in RIPA (150 mM NaCl, 1% NP-40, 0.5% sodium deoxycholate, 0.1% SDS, 50 mM Tris pH8.0) supplemented with protease inhibitors (minitab, Roche, Indianapolis Ind.) and phosphatase inhibitor cocktails I and II (Sigma). 10-50 ug of protein was resolved on 4-12% NuPage bis-tris polyacrylamide gels (Invitrogen, Carlsbad Calif.) and transferred to nitrocellulose. Blots were blocked with 3% BSA (Sigma, IgG free), 0.2% Tween-20 in PBS and incubated with primary antibody in the same buffer overnight at 4° C. Blots were washed with PBS-0.2% Tween-20, incubated with secondary antibody conjugated with HRP and developed using ECLplus (Amersham Bioscience, Piscataway N.J.). Blots were stripped for reprobing by incubation for 20 minutes at 65° C. in PBS supplemented with 1% SDS and […] β-mercaptoethanol. Blots were then washed and blocked as above. […]

[2] = test system: Akt/mTOR pathway; assay: Western blotting of Akt/mTOR pathway phosphorylation in B cells; assay type: cell-based, mouse
Protocol: Cell cultures: Purified B cells or CD23′ B cells were cultured in RPMI-1640 supplemented with 2-mercaptoethanol, MEM-non-essential amino acids, glutamine, penicillin and streptomycin (complete media, CM). For B cell survival and other assays recombinant human Neutrokine-alpha made at Human Genome Sciences, Rockville Md. was used at 50-100 ng/ml. FLAG-tagged human Neutrokine-alpha was from Dr. Randolph Noelle, Dartmouth Medical School. Murine Neutrokine-alpha was purchased from Alexis Biochemicals, San Diego Calif. and human interferon alpha (IFNα) from PBL Biomedical, Piscataway, N.J. Rapamycin was used at a final concentration of 50 nM, added to cultures from a stock dissolve in methanol. Control B cells in experiments using rapamycin were treated with methanol as a vehicle control. For kinetic assays B cells were prepared and refrigerated overnight at 4° C. 5-6×10^6 purified B cells per sample were spun onto 24-well plates that had been coated with 5 ug/ml monoclonal anti-FLAG M2 antibody (Sigma), washed, blocked with 1% BSA in PBS, followed by the addition of FLAG-tagged human Neutrokine-alpha 2 ug/well an hour prior to washing and cell addition. Unstimulated control B cells were those spun onto wells treated with anti-FLAG antibody alone. B cells were also activated by incubation with anti-murine IgM (5 ug/ml), anti-CD40 (0.5 ug/ml) or 100 ng/ml of recombinant human Neutrokine-alpha added to kinetic assay buffer (Hank's balanced salt solution plus 2% BSA).
Antibodies and Western Blotting: Mouse anti-Pim 2 (1D12), Pim 1 (19F7), goat anti-actin (1-19), anti-mouse Ig, anti-rabbit Ig and anti-goat Ig coupled to HRP were obtained from Santa Cruz Biotechnology, Santa Cruz Calif. […] Rabbit anti-mouse Mcl-1 was purchased from Rockland, Wilmington Mass. […]
Purified B cells were stimulated for the 0, 5, 20, 60 or 120 minutes with 100 ng/ml recombinant human or murine Neutrokine-alpha or anti-Ig (positive control) at 37° C. in pregassed medium. Lysates were prepared from iced samples and analyzed by Western Blot. […]

[3] = test system: B cells; assay: B cell survival assay; assay type: cell-based, mouse; details: Pim-1−/−2−/− B cells, 100 ng/ml rhuNeutrokine-alpha, 4 days
Text: Mice: Pim-1^+/+2^+/+, Pim-1^−/−2^+/+, Pim-1^+/+2^−/− and Pim-1^−/−2^−/− mice were generated from Pim-1^+/−2^+/− stock of Paul Rothman Columbia University, New York, N.Y. C57BL/6 (B6) mice were from The Jackson Laboratory, Bar Harbor Me. or from the National Cancer Institute Production Program, NCI-Fredrick, Fredrick Md. Animals were bred and maintained at the Univ. of Pennsylvania, Harvard Medical School, or the Univ. of Massachusetts Medical School in accordance with Institutional Animal Care and Use Committee guidelines.
B cell purification: Splenic B cells were obtained by anti-thy1.2 and complement treatment of splenocytes followed by purification of resting B cells using a step wise percoll gradient and harvesting cells at the 60-70% interface. […]
Survival assays: B cells at 5×10^6/ml were cultured in 24-well tissue culture dishes in CM at 37° C. […] Survival was monitored daily by counting viable cells using trypan blue exclusion with each determination done in triplicate.
Rapamycin is a potent inhibitor of mTOR and a potent suppressor of B cell proliferation and differentiation. […] Viable cells were determined at day 4. […]

[4] = test system: Neutrokine-alpha in monocytes and macrophages; assay: Neutrokine-alpha expression in cytokine-treated monocytes and macrophages; assay type: cell-based; details: in vitro
[5] = test system: B cell; assay: Neutrokine-alpha mediated B cell proliferation with cytokines; assay type: cell-based
Protocol: In an additional embodiment, an immunomodulatory agent is administered in combination with cytokines. Cytokines that may be administered with an immunomodulatory agent include, but are not limited to, GM-CSF, G-CSF, IL2, IL3, IL4, IL5, IL6, IL7, IL10, IL12, IL13, IL15, anti-CD40, CD40L, IFN-alpha, IFN-beta, IFN-gamma, TNF-alpha, and TNF-beta. In another embodiment, an immunomodulatory agent may be administered with any interleukin, including but not limited to, IL-1alpha, IL-1beta, IL-2, IL-3, IL-4, IL-5, IL-6, IL-7, IL-8, IL-9, IL-10, IL-11, IL-12, IL-13, IL-14, IL-15, IL-16, IL-17, IL-18, IL-19, IL-20, IL-21, and IL-22. In preferred embodiments, an immunomodulatory agent is administered in combination with IL4 and IL10. Both IL4 and IL10 have been observed by the inventors to enhance Neutrokine-alpha mediated B cell proliferation.

Molecule	Pim1 and Pim 2 expression [1]	mTOR activation (phosphorylation of p70 S6 kinase and 4E-BP1) ([2]; primary B cells)	Akt phosphorylation (serine 473 and threonine 308) ([2]; primary B cells, 100 ng/ml, 0-120 minutes)	phosphorylation of GSKβ, FOXO1 and FOXO3a ([2]; purified B cells, plate bound FLAG-tagged or soluble (100 ng/ml) Neutrokine-alpha)	B cell survival [3]	cell surface expression of Neutrokine-alpha [4]	Neutrokine-alpha mediated B cell proliferation [5]
Neutrokine-alpha: recombinant human Neutrokine-alpha made at Human Genome Sciences; member of the TNF family of ligands	upregulate	activation of mTOR	activation of the Akt pathway	phosphorylation of the Akt substrates	enhanced survival	–	–
B1	–	–	–	–	–	enhance	–
B2	–	–	–	–	–	decreased	enhance
B3	–	–	–	–	–	enhance	enhance

From patent publication US9168286B2, “Methods and compositions for use in treatment of patients with autoantibody positive disease” (Human Genome Sciences, Inc., priority 2005, dated 2015)
